Data on 30 compounds can be found in patent US9546164B2 (GENENTECH, INC., priority 2013, dated 2017).

Structures can show the parent of a compound that is named as a salt.

The first experiment deals with hNav1.7 (Homo sapiens (Human), UniProt Q15858). The experiment is described as follows: Tritiated sulfonamide competitive binding to membranes from cells expressing hNav1.7 and the β1 subunit.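 Note: Filter-bound radioactivity counted by liquid scintillation, nonspecific binding defined with excess unlabelled ligand, IC50 fitted to percent inhibition of specific binding.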
Chain of hNav1.7 (Q15858 other isoform, or with tags, fused parts or gaps): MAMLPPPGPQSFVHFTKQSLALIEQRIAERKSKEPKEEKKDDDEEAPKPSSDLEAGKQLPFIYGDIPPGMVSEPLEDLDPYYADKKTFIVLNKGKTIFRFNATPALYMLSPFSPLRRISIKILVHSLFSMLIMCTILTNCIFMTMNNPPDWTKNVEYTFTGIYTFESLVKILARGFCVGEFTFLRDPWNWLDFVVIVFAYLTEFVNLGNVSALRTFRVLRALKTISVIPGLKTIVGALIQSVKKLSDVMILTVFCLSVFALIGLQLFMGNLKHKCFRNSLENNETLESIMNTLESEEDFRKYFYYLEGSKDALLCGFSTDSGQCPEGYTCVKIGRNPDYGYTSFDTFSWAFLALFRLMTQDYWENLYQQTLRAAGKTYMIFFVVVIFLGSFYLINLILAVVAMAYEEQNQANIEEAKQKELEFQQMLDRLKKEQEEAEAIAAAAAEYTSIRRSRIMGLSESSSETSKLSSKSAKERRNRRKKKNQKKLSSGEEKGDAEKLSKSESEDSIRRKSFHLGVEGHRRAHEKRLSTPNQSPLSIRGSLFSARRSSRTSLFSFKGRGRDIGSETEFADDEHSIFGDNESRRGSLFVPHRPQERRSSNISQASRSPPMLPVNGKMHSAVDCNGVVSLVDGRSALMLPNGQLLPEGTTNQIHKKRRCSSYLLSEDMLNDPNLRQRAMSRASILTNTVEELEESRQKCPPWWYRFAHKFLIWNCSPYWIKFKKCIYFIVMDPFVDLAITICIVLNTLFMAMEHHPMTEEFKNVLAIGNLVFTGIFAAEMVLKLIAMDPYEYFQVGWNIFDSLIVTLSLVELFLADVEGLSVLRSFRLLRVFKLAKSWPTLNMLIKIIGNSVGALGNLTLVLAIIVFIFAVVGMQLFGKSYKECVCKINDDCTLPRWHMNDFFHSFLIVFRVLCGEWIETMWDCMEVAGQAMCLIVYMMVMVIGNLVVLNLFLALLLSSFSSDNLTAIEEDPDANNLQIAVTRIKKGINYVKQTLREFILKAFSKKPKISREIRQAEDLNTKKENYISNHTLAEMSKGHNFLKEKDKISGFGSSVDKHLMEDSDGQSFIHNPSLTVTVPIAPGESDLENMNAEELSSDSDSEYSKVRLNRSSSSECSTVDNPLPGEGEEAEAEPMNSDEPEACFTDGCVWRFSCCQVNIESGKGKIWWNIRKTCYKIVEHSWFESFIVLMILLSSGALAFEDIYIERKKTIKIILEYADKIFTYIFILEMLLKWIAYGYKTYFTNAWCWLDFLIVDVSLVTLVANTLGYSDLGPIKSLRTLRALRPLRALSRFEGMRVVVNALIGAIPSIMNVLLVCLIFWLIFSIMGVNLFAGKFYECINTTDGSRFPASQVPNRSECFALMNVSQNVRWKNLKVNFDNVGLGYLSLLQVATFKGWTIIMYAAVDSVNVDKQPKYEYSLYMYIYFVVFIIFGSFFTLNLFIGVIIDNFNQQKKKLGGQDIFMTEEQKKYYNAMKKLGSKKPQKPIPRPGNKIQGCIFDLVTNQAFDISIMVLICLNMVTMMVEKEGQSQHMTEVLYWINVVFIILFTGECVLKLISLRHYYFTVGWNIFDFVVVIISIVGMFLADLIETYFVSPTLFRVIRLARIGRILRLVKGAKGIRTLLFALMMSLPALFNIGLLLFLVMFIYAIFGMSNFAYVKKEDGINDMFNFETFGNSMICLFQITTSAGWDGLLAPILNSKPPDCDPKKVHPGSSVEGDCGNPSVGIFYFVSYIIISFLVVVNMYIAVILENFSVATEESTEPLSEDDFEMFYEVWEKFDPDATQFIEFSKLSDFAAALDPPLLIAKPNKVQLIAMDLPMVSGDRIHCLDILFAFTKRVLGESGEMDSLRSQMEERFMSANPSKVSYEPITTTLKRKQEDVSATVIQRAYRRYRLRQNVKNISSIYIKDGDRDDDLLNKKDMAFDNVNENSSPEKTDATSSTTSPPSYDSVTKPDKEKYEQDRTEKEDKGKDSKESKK
Chain of hNav1.7 (Q07699 19-218 partner): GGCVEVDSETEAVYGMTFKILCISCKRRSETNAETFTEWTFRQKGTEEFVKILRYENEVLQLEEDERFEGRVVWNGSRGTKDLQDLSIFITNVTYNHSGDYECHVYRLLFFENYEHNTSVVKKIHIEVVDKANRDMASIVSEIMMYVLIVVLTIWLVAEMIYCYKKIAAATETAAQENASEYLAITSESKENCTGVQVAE
Details: not given
Compound `CS(=O)(=O)NC(=O)c1cc(C2CC2)c(CN2CCC(Oc3ccccc3C(F)(F)F)CC2)cc1F` [Example 497, 5-cyclopropyl-2-fluoro-N-(methylsulfonyl)-4-((4-(2-(trifluoromethyl)phenoxy)piperidin-1-yl)methyl)benzamide] registered an IC50 of 14.3 nM.

On to `CS(=O)(=O)NC(=O)c1cc(C2CC2)c(CN2CCN(Cc3cc(Cl)cc(Cl)c3)CC2)cc1F` [Example 517, 5-cyclopropyl-4-((4-(3,5-dichlorobenzyl)piperazin-1-yl)methyl)-2-fluoro-N-(methylsulfonyl)benzamide, trifluoroacetic acid salt], for which the IC50 turned out to be 15 nM.

`O=C(NS(=O)(=O)C1CC1)c1cc(C2CC2)c(CN2CC(Oc3cc(Cl)cc(Cl)c3)C2)cc1F` [Example 545, 5-cyclopropyl-N-(cyclopropylsulfonyl)-4-((3-(3,5-dichlorophenoxy)azetidin-1-yl)methyl)-2-fluorobenzamide, trifluoroacetic acid salt] returned an IC50 of 3.4 nM.

On to `CS(=O)(=O)NC(=O)c1cc(C2CC2)c(O[C@@H]2CCCN(Cc3c(Cl)cccc3Cl)C2)cc1F` [Example 10, (R)-5-cyclopropyl-4-((1-(2,6-dichlorobenzyl)piperidin-3-yl)oxy)-2-fluoro-N-(methylsulfonyl)benzamide], for which the IC50 is 4.1 nM.

For `O=C(NS(=O)(=O)C1CC1)c1cc(C2CC2)c(O[C@@H]2CCCN(C(c3ccccc3)c3ccccc3)C2)cc1F` [Example 16, (R)-4-((1-benzhydrylpiperidin-3-yl)oxy)-5-cyclopropyl-N-(cyclopropylsulfonyl)-2-fluorobenzamide], the IC50 is 3.4 nM.

The same experiment, now with this note: read-out: Ligand Binding Assay; 100 pM [3H]compound, membranes with hNav1.7 and β1 subunit, 18 h, room temperature.
Consider `CS(=O)(=O)NC(=O)c1cc(C2CC2)c(OC[C@@H]2C[C@H]3CC[C@@H](C2)N3Cc2cc(C(F)(F)F)ccc2Cl)cc1F` [Example 399, 4-(((1R,3S,5S)-8-(2-chloro-5-(trifluoromethyl)benzyl)-8-azabicyclo[3.2.1]octan-3-yl)methoxy)-5-cyclopropyl-2-fluoro-N-(methylsulfonyl)benzamide, trifluoroacetic acid salt], for which the IC50 was 4.6 nM.

As to `O=C(NS(=O)(=O)C1CC1)c1cc(C2CC2)c(OCC2CN(c3cc(C(F)(F)F)c(Cl)cn3)C2)cc1F` [Example 543, 4-((1-(5-chloro-4-(trifluoromethyl)pyridin-2-yl)azetidin-3-yl)methoxy)-5-cyclopropyl-N-(cyclopropylsulfonyl)-2-fluorobenzamide], the IC50 is 11.7 nM.

With `CC(C)Oc1ncc([C@H](c2ccccc2)N2CC(COc3cc(F)c(C(=O)NS(C)(=O)=O)cc3C3CC3)C2)cc1Cl` [Example 114, (S)-4-((1-((5-Chloro-6-isopropoxypyridin-3-yl)(phenyl)methyl)azetidin-3-yl)methoxy)-5-cyclopropyl-2-fluoro-N-(methylsulfonyl)benzamide], the IC50 is 7.27 nM.

For the compound `O=C(NS(=O)(=O)N1CCC1)c1cc(C2CC2)c(CN2CCC[C@@H](Oc3cc(Cl)cc(Cl)c3)C2)cc1F` [Example 56, (R)—N-(azetidin-1-ylsulfonyl)-5-cyclopropyl-4-((3-(3,5-dichlorophenoxy)piperidin-1-yl)methyl)-2-fluorobenzamide], the IC50 came out at 63.5 nM.

With `CS(=O)(=O)NC(=O)c1cc(C2CC2)c(OCC2CN([C@H](c3ccccc3)c3ccc(F)cc3)C2)cc1F` [Example 145, (R)-5-Cyclopropyl-2-fluoro-4-((1-((4-fluorophenyl)(phenyl)methyl)-azetidin-3-yl)methoxy)-N-(methylsulfonyl)benzamide], the IC50 is 6.22 nM.

For `CCS(=O)(=O)NC(=O)c1cc(C2CC2)c(OCC2CCN([C@H](C)c3ccc(F)cc3Cl)CC2)cc1F` (single isomer, unassigned) [Example 246], the IC50 was 7.7 nM.

Take `C[C@@H](c1cccc(F)c1)N1CCC(C)(COc2cc(F)c(C(=O)NS(C)(=O)=O)cc2C2CC2)CC1` (single isomer, unassigned) [Example 251]: the IC50 amounted to 49 nM.

For `O=C(NS(=O)(=O)C1CC1)c1cc(C2CC2)c(OCC2CCN(C(=O)c3ccc(Cl)cc3Cl)CC2)cc1F` [Example 258, 5-Cyclopropyl-N-(cyclopropylsulfonyl)-4-((1-(2,4-dichlorobenzoyl)piperidin-4-yl)methoxy)-2-fluorobenzamide], the IC50 was found to be 65 nM.

Take `CC(c1cc(Cl)cc(Cl)c1)N1CCC(COc2cc(F)c(C(=O)NS(=O)(=O)N3CCC3)cc2C2CC2)CC1` (stereo not drawn) [Example 103, N-(Azetidin-1-ylsulfonyl)-5-cyclopropyl-4-((1-(1-(3,5-dichlorophenyl)-ethyl)piperidin-4-yl)methoxy)-2-fluorobenzamide]: the IC50 turned out to be 5.24 nM.

For the compound `Cc1cc(C(=O)NS(C)(=O)=O)c(F)cc1OCC1CCN([C@@H](C)c2cc(Cl)cc(Cl)c2)CC1` [Example 360, (S)-4-((1-(1-(3,5-dichloro)ethyl)piperidin-4-yl)methoxy)-2-fluoro-5-methyl-N-(methylsulfonyl)benzamide, trifluoroacetic acid], the IC50 was 12.8 nM.

As for `CCS(=O)(=O)NC(=O)c1cc(C2CC2)c(OCC2CCN(C3(c4cc(Cl)cc(Cl)c4)COC3)CC2)cc1F` [Example 177, 5-Cyclopropyl-4-((1-(3-(3,5-dichlorophenyl)oxetan-3-yl)piperidin-4-yl)methoxy)-N-(ethylsulfonyl)-2-fluorobenzamide], the IC50 came out at 8.3 nM.

`O=C(NS(=O)(=O)C1CC1)c1cc(C2CC2)c(OCC2CCN(Cc3cc(C(F)(F)F)cc(C4CC4)n3)CC2)cc1F` [Example 308]: the IC50 was 6 nM.

Consider `O=C(NS(=O)(=O)C1CC1)c1cc(C2CC2)c(CN2[C@@H]3CC[C@H]2CC(Oc2cc(C(F)(F)F)cc(Cl)c2F)C3)cc1F` (stereo partly drawn) [Example 470, 4-(((1R,3r,5S)-3-(3-chloro-2-fluoro-5-(trifluoromethyl)phenoxy)-8-azabicyclo[3.2.1]octan-8-yl)methyl)-5-cyclopropyl-N-(cyclopropylsulfonyl)-2-fluorobenzamide, trifluoroacetic acid salt], for which the IC50 was found to be 3.8 nM.

In the case of `CS(=O)(=O)NC(=O)c1cc(C2CC2)c(OCCC2CCN(Cc3cc(Cl)cc(Cl)c3)CC2)cc1F` [Example 302, 5-cyclopropyl-4-(2-(1-(3,5-dichlorobenzyl)piperidin-4-yl)ethoxy)-2-fluoro-N-(methylsulfonyl)benzamide, trifluoroacetic acid salt], the IC50 worked out at 5.7 nM.

As for `O=C(NS(=O)(=O)C1CC1)c1cc(C2CC2)c(OCC2CCN(S(=O)(=O)c3cc(Cl)cc(Cl)c3)CC2)cc1F` [Example 275, 5-Cyclopropyl-N-(cyclopropylsulfonyl)-4-((1-((3,5-dichlorophenyl)sulfonyl)piperidin-4-yl)methoxy)-2-fluorobenzamide], the IC50 stood at 6.9 nM.

Consider `CCS(=O)(=O)NC(=O)c1cc(C2CC2)c(OC[C@@H]2CC[C@@H](C)N([C@H](C)c3cc(Cl)cc(Cl)c3)C2)cc1F` [Example 345, 5-cyclopropyl-4-(((3R,6R)-1-((R)-1-(3,5-dichlorophenyl)ethyl)-6-methylpiperidin-3-yl)methoxy)-N-(ethylsulfonyl-2-fluorobenzamide, trifluoroacetic acid salt], for which the IC50 was 7.8 nM.

For the compound `C[C@H]1CC[C@@H](Oc2cc(F)c(C(=O)NS(=O)(=O)N3CCC3)cc2C2CC2)CN1Cc1ccc(F)cc1Cl` [Example 325, N-(azetidin-1-ylsulfonyl)-4-(((3R,6S)-1-(2-chloro-4-fluorobenzyl)-6-methylpiperidin-3-yl)oxy)-5-cyclopropyl-2-fluorobenzamide], the IC50 amounted to 2.4 nM.

With `C[C@@H](c1cc(Cl)cc(Cl)c1)N1CCC(COc2cc(F)c(C(=O)NS(C)(=O)=O)cc2Cl)CC1` [Example 402, (S)-5-chloro-4-((1-(1-(3,5-dichlorophenyl)ethyl)piperidin-4-yl)methoxy)-2-fluoro-N-(methylsulfonyl)benzamide, trifluoroacetic acid salt], the IC50 worked out at 22.4 nM.

Regarding `CS(=O)(=O)NC(=O)c1cc(C2CC2)c(OCC2CCN(Cc3ccccc3F)CC2)cc1F` [Example 127, 5-Cyclopropyl-2-fluoro-4-((1-(2-fluorobenzyl)piperidin-4-yl)methoxy)-N-(methylsulfonyl)benzamide], the IC50 was determined as 578 nM.

With `CS(=O)(=O)NC(=O)c1cc(C2CC2)c(OC[C@@H]2CCN(Cc3cc(Cl)cc(Cl)c3)C(=O)C2)cc1F` (single isomer, unassigned) [Example 234], the IC50 was 170 nM.

As for `COCC(c1cc(Cl)cc(Cl)c1)N1CCC(COc2cc(F)c(C(=O)NS(C)(=O)=O)cc2C2CC2)CC1` (stereo not drawn) [Example 90, 5-Cyclopropyl-4-((1-(1-(3,5-dichlorophenyl)-2-methoxyethyl)piperidin-4-yl)methoxy)-2-fluoro-N-(methylsulfonyl)benzamide], the IC50 was determined as 2.87 nM.

In the case of `C[C@H](c1ccc(OC(F)(F)F)cc1)N1CCC(C)(COc2cc(F)c(C(=O)NS(C)(=O)=O)cc2C2CC2)CC1` (single isomer, unassigned) [Example 249], the IC50 came out at 39 nM.

Take `CS(=O)(=O)NC(=O)c1cc(C2CC2)c(OCC2CCN(Cc3ccc(F)c(C(F)(F)F)c3)CC2)cc1F` [Example 189, 5-Cyclopropyl-2-fluoro-4-((1-(4-fluoro-3-(trifluoromethyl)benzyl)piperidin-4-yl)methoxy)-N-(methylsulfonyl)benzamide]: the IC50 was 16 nM.

The experiment is the same for the next values; noted with them: read-out: Ligand Binding Assay; 100 pM [3H]compound, membranes with hNav1.7 and β1 subunit, 18 h, room temperature; trifluoroacetic acid salt.
Take `CS(=O)(=O)NC(=O)c1cc(C2CC2)c(CN2[C@@H]3CC[C@H]2C[C@@H](Oc2ncc(C(F)(F)F)cc2Cl)C3)cc1F` [Example 553, 4-(((1R,3r,5S)-3-((3-chloro-5-(trifluoromethyl)pyridin-2-yl)oxy)-8-azabicyclo[3.2.1]octan-8-yl)methyl)-5-cyclopropyl-2-fluoro-N-(methylsulfonyl)benzamide, trifluoroacetic acid salt]: the IC50 came out at 6.1 nM.

Take `O=C(NS(=O)(=O)C1CC1)c1cc(C2CC2)c(CN2CCC(Oc3ccc(F)cc3Cl)CC2)cc1F` [Example 507, trifluoroacetic acid salt]: the IC50 amounted to 81.7 nM.
